Reference: patent publication US8815811B2, “Peptides and methods for their preparation and use” (Eli Lilly and Company, priority 2010, dated 2014)
Where no end group is shown, it is not given here. [ ]: non-standard residue; d: D form. 1Nal = N[C@@H](Cc1cccc2ccccc12)C(=O)O; Aib = CC(C)(N)C(=O)O

Key:
[1] = system: ovariectomized (OvX) Sprague Dawley rats; assay: Skeletal effects in ovariectomized (OvX) Sprague Dawley rats; assay type: in vivo
Procedure: Example 4 was evaluated in 6 months old, ovariectomized (OvX; see Endocrinology 144: 2008-2015), Sprague Dawley rats. Doses of 0, 2.9, 9.7, or 29 nmol/kg were given to the rats as daily subcutaneous injections starting 9 days post surgery. […] It should be noted that loss in body weight (8% in this study) can directly affect bone mass. Bone strength is load dependent and losing weight results in a lower load on bones that carry weight and as a consequence less impact is observed on skeletal parameters of bones that carry weight, i.e. the femur cortical bone. Statistical significances were evaluated by a one-way ANOVA followed by a Dunnett's test.

Normal male Wistar rats = assay: Intravenous glucose tolerance test in normal rats; assay type: in vivo; conditions: IVGTT; for insulin AUC: 0 to 30 min
Procedure: Effects on Blood Glucose Excursion During an Intravenous Glucose Tolerance Test in Normal Rats
Normal male Wistar rats (225-250 g) are used in the study. Animals are randomized into groups based on fed body weight and blood glucose. Animals are injected with vehicle or peptide analog (dose 3-400 μg peptide content/kg) 16 hours prior to the start of the test. Food is removed at the time of injection. Prior to the assay the animals are put under anesthesia, Phenobarbital 65 mg/kg i.p., and two catheters are inserted, one in the jugular vein and the other in the carotid artery. At time 0, animals are given 0.5 g glucose/kg through the venous catheter. Blood is collected from the carotid artery at time 0 (pre glucose), 2, 4, 6, 10, 20 and 30 minutes after glucose challenge. Glucose concentration is measured by glucometer. Insulin is measured by Mesoscale®. Efficacy is measured as the increase in total area under the insulin curve (=integrated plasma insulin values from t+0 to 30 min) as well as the area under the glucose curve which is a measure of the glucose excursion following the intravenous glucose challenge.

hGlucR = target: T1, hGlucR (Homo sapiens, UniProt P47871); assay: Glucagon receptor (hGlucR) binding assay (SPA, I-125 glucagon); conditions: hGlucR 293HEK membranes
T1 construct: expressed in transfected cells; host or cells: 293HEK, Hygromycin-selected, phD expression plasmid
T1 sequence (P47871 26-477): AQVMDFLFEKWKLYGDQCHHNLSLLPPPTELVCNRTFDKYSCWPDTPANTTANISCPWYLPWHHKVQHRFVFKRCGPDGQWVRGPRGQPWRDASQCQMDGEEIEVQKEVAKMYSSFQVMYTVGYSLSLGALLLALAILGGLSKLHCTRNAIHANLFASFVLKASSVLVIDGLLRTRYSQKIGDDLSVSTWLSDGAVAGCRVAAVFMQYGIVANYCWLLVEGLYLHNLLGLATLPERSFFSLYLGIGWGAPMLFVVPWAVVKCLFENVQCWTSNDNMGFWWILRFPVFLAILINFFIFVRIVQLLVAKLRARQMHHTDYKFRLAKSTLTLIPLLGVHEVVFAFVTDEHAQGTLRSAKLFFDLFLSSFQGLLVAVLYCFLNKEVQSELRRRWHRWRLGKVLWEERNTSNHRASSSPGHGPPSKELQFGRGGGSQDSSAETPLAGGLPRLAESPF
Procedure: The hGlucR cDNA is subcloned into the expression plasmid phD (Trans-activated expression of fully gamma-carboxylated recombinant human protein C, an antithrombotic factor. Grinnell, B. W., et. al., Bio/Technology 5: 1189-1192 (1987)). This plasmid DNA is transfected into 293HEK cells and selected with 200 μg/mL Hygromycin.
Crude plasma membranes are prepared using cells from suspension culture. The cells are lysed on ice in hypotonic buffer containing 25 mM Tris HCl, pH 7.5, 1 mM MgCl2, DNAse1, 20 μ/mL, and Roche Complete™ Inhibitors without EDTA. The cell suspension is homogenized with a glass dounce homogenizer using a Teflon® pestle for 25 strokes. The homogenate is centrifuged at 4° C. at 1800×g for 15 minutes. The supernatant is collected and the pellet is resuspended in hypotonic buffer and rehomogenized. The mixture is centrifuged at 1800×g for 15 minutes. The second supernatant is combined with the first supernatant. […]
The binding buffer contains 25 mM 4-(2-hydroxyethyl)-1-piperazineethanesulfonic acid (HEPES), pH 7.4, 2.5 mM CaCl2, 1 mM MgCl2, 0.1% fatty acid free BSA, 0.003% Tween20, and Roche Complete™ Inhibitors without EDTA. […] Plates are read with a PerkinElmer Life and Analytical Sciences Trilux MicroBeta® scintillation counter after 12 hours of settling time at room temperature.
Results are calculated as a percent of specific I-125-glucagon binding in the presence of compound. […]

[2] = system: diet-induced obese Long Evans rats; assay: Effects on food intake, body weight, body composition and plasma lipids in DIO Long Evans rats; assay type: in vivo
Procedure: Four to five months old male diet-induced obese Long Evans rats are used. Animals are individually housed in a temperature-controlled (24° C.) facility with a 12 hour light/dark cycle (lights on 22:00), and have free access to food (diet TD95217) and water. Animals are acclimated to the facility for at least 2 weeks. On day 0, body composition is determined by QNMR and rats are randomized to respective groups (n=6/group) based on body weight, % fat, and % lean mass. Compound is administered by subcutaneous injection on days 1, 4, 8, 11, and 15. […] After CO2 euthanasia, blood samples are taken by cardiac stick for analysis of exposure determination.

[3] = OvX rats, 2.9 nmol/kg daily sc, 35 days
[4] = OvX rats, 9.7 nmol/kg daily sc, 35 days
[5] = OvX rats, 29 nmol/kg daily sc, 35 days

For “Aib^2, Aib^13, Nal^22, Aib^29, Cys^43(PEG20K), Cys^44 (PEG20K)-GIP (Y[Aib]EGTFTSDYSI[Aib]LDKIAQRA[1Nal]VQWLIA[Aib]KGKKQEWKHQITQC(PEG 20 kDa)C(PEG 20 kDa)-NH2) [Example 4]”, the “Bone mineral density (BMD) of lumbar vertebrae, MEAN” value (from here on “Bone mineral density (BMD)”) [1, 3] was 557 mg/mL, the “Changes in bone mineral content (BMC) of lumbar vertebrae, Bone mineral density (mg), MEAN” value (shortened to “Changes in bone mineral content (BMC)”) [1, 3] was 9.75 mg and the “Bone mineral density (BMD)” value [1, 4] was 558 mg/mL. For the same substance, the “Changes in bone mineral content (BMC)” value [1, 4] was 9.98 mg, the “Bone mineral density (BMD)” value [1, 5] was 588 mg/mL and the “Changes in bone mineral content (BMC)” value [1, 5] was 10.49 mg. The “reduction of food consumption and body weight” value ([1]; OvX rats, 2.9-29 nmol/kg daily, 35 days, dose responsive) was “up to 8%”, the “OvX induced loss in bone mineral content and bone mineral density in lumbar vertebrae” value ([1]; OvX rats, 35 days) was “dose-dependently prevented” and the “adverse effect on bone mineral density or bone mineral content in the femur and lumbar vertebra” value ([1]; OvX rats, 35 days) was “did not adversely affect”. For the same substance, the “effect in mid femur cortical bone (BMC, BMD)” value ([1]; OvX rats, 35 days) was “no effect”, the fat mass ([1]; OvX rats, 35 days) was “decreased fat mass” and the lean mass ([1]; OvX rats, 35 days) was “no change”. For the same substance, the “non-fasted serum glucose and triglycerides” value ([1]; OvX rats, 35 days) was “decreased”, the “BMC and BMD in OvX rats” value ([1]; summary of Tables 8 and 9) was “improves” and the “insulin AUC and glucose AUC compared to vehicle-treated rats” value (Normal male Wistar rats) was “increased insulin AUC and decreased glucose AUC”. For the same substance, the “glucose AUC” value (Normal male Wistar rats; 50 μg/Kg) was 7730 mg·min/dL, the “insulin AUC” value (Normal male Wistar rats; 50 μg/Kg 16 hours before test) was 150 ng·min/mL and the “glucose AUC” value (Normal male Wistar rats; 200 μg/Kg) was 7420 mg·min/dL. For the same substance, the “insulin AUC” value (Normal male Wistar rats; 200 μg/Kg 16 hours before test) was 161 ng·min/mL, the Ki (hGlucR) was greater than 7.49 µM and the “total cholesterol (plasma)” value ([2]; 10 nmol/Kg) was 110 mg/dL. For the same substance, the “triglycerides (plasma)” value ([2]; 10 nmol/Kg) was 488.7 mg/dL, the “free fatty acids (plasma)” value ([2]; 30 nmol/Kg) was 0.82 mEq/L and the “total cholesterol (plasma)” value ([2]; 30 nmol/Kg) was 104 mg/dL. The “triglycerides (plasma)” value ([2]; 30 nmol/Kg) was 212.2 mg/dL, the fat mass reduced ([2]; 30 nmol/Kg over 16 days) was 1.8% and the lean mass increased ([2]; 30 nmol/Kg over 16 days) was 0.4%. For the same substance, the fat mass reduced ([2]; 100 nmol/Kg over 16 days) was 3.2%, the lean mass increased ([2]; 100 nmol/Kg over 16 days) was 1.8% and the “changes in body weight and body composition compared to vehicle-treated DIO rats” value ([2]; over 16 days) was “increasing the percentage of lean mass and decreasing the percentage of fat mass”. The “amount of free fatty acids” value ([2]; versus vehicle) was “increased” and the “amounts of plasma lipids, including triglycerides and total cholesterol” value ([2]; versus vehicle) was “lowered”.
